Source: patent US9079870B2, “Thiol mediated/activated prodrugs of sulfur dioxide (SO2) having anti-bacterial activity” (priority 2012, dated 2015)
Converted amounts (≈) assume the structure as drawn. Where two headings read alike, the source gives them in different places.

Tests used:
[1] = system: E. feacalis ATCC 29212; test: Antibacterial activity (MIC) against E. feacalis; format: cell-based
Text: (§1) The antibacterial activity of thiol mediated/activated prodrugs of SO2 i.e. 2,4-dinitrophenylsulfonamide related compounds against the gram positive pathogenic bacteria selected from the group S. aureus, E. feacalis is given herein below Table 2a.

[2] = system: S. aureus ATCC 29213; test: Antibacterial activity (MIC) against S. aureus; format: cell-based
Text: as §1

[3] = system: Mycobacterium tuberculosis H37Rv strain; test: Antimycobacterial activity assay (MIC, 7H11 agar); format: cell-based; settings: for inhibition of growth of Mtb at 100 μg mL-1: tested at 100 μg mL-1
[4] = Cysteine-activated sulfur dioxide release, ion chromatography analysis of sulfite; settings: for SO2 yield, 5 min: 5 min after treatment of compound (100 1M) with 10 equiv of cysteine in pH 7.4 phosphate buffer; for % SO2 (30 min): 30 min after commencement of the reaction with thiol, per mole of compound
[5] = Pararosaniline-based colorimetric assay for sulfur dioxide; format: physicochemical; settings: detected with pararosaniline-based colorimetric assay; 10 equiv cysteine, pH 7.4
[6] = Enterococcus faecalis, ATCC29212; read-out: MIC (μg/mL) E. feacalis ATCC 29212
[7] = Staphylococcus aureus, ATCC29213; read-out: MIC (μg/mL) S. aureus ATCC 29213
[8] = Mycobacterium tuberculosis, H37RV, Table 2b, Mtb H37Rv
[9] = Mycobacterium tuberculosis, H37RV, Table 2b, inhibit 99% of bacterial growth, Mtb H37Rv
[10] = 30 min after treatment of compound (100 1M) with 10 equiv of cysteine in pH 7.4 phosphate buffer
[11] = Table 2b, Mtb H37Rv, read-out: MIC
[12] = Mycobacterium tuberculosis, H37RV, 672 h, Table 3, inhibit 99% of bacterial growth, Mtb H37Rv, read-out: MIC
[13] = Mycobacterium tuberculosis, H37RV, Table 3, Mtb H37Rv
[14] = Mycobacterium tuberculosis, H37RV, Table 3, inhibit 99% of bacterial growth, Mtb H37Rv
[15] = Table 3, 30 min after treatment of compound (100 μM) with 10 equiv of cysteine in pH 7.4 phosphate buffer
[16] = Mycobacterium tuberculosis, Table 2b, Mtb H37Rv, read-out: MIC
[17] = Mycobacterium tuberculosis, Table 2b, inhibit 99% of bacterial growth, Mtb H37Rv, read-out: MIC
[18] = Mycobacterium tuberculosis, Table 3, Mtb H37Rv, read-out: MIC
[19] = Enterococcus faecalis, ATCC29212, read-out: MIC (μg/mL) E. feacalis ATCC 29212
[20] = Staphylococcus aureus, ATCC29213, read-out: MIC (μg/mL) S. aureus ATCC 29213

In the case of `COc1ccccc1NS(=O)(=O)c1ccc([N+](=O)[O-])cc1[N+](=O)[O-]` [Compound 8, N-(2-methoxyphenyl) 2,4-dinitrophenylsulfonamide], the MIC [1, 6] was 16 µg/mL (≈ 45.3 µM), the MIC [2, 7] was 8 µg/mL (≈ 22.6 µM) and the MIC [3, 8] was 8.85 µM. For the same compound, the MIC [3, 9] was 3.13 µg/mL, the “SO2 yield, 5 min” value [4] was 57 µM and the “SO2 yield, 30 min” value [4, 10] was 86 µM.
For `O=[N+]([O-])c1ccc(S(=O)(=O)N(CCCN(Cc2ccccc2)S(=O)(=O)c2ccc([N+](=O)[O-])cc2[N+](=O)[O-])Cc2ccccc2)cc1` [Compound 42, N-benzyl-N-(3-(N-benzyl-4-nitrophenylsulfonamido)propyl)-2,4-dinitrobenzenesulfon-amide], the “% SO2 (30 min)” value [4] was 98%.
In the case of `COc1ccccc1N(CCCN(Cc1ccccc1)S(=O)(=O)c1ccc([N+](=O)[O-])cc1[N+](=O)[O-])S(=O)(=O)c1ccc([N+](=O)[O-])cc1[N+](=O)[O-]` [Compound 35, N-benzyl-N-(3-(N-(2-methoxyphenyl)-2,4-dinitrophenylsulfonamido)propyl)-2,4-dinitrobenzenesulfonamide], the “% SO2 (30 min)” value [4] was 161%.
For `O=[N+]([O-])c1ccc(S(=O)(=O)N(CCc2ccccc2)Cc2ccccc2)c([N+](=O)[O-])c1` [Compound 20, N-benzyl, N-(2-phenylethyl) 2,4-dinitrophenylsulfonamide], the “MIC” value [3] was 3.13 µg/mL, the MIC [3, 11] was 7.09 µM and the “SO2 yield, 5 min” value [4] was 37 µM. The “SO2 yield, 30 min” value [4, 10] was 75 µM.
In the case of `C[C@H](NS(=O)(=O)c1ccc([N+](=O)[O-])cc1[N+](=O)[O-])c1ccccc1` [Compound 12, (S) N-(1-phenylethyl)-2,4-dinitrobenzenesulfonamide], the MIC [3, 8] was 4.44 µM, the MIC [3, 9] was 1.56 µg/mL and the “SO2 yield, 5 min” value [4] was 80 µM. For the same compound, the “SO2 yield, 30 min” value [4, 10] was 97 µM.
In the case of `CN(c1ccccc1)S(=O)(=O)c1ccc([N+](=O)[O-])cc1[N+](=O)[O-]` [Compound 18, (N-methyl, N-phenyl) 2,4-dinitrophenylsulfonamide], the “MIC” value [3] was 0.78 µg/mL, the MIC [3, 11] was 2.31 µM and the “SO2 yield, 5 min” value [4] was 89 µM. For the same compound, the “SO2 yield, 30 min” value [4, 10] was 94 µM.
For `CN(CCc1ccccc1)S(=O)(=O)c1ccc([N+](=O)[O-])cc1[N+](=O)[O-]` [Compound 19, N-methyl, N-(2-phenylethyl) 2,4-dinitrophenylsulfonamide], the “MIC” value [3] was 0.78 µg/mL, the MIC [3, 11] was 2.13 µM and the “SO2 yield, 5 min” value [4] was 79 µM. For the same compound, the “SO2 yield, 30 min” value [4, 10] was 84 µM.
With `O=[N+]([O-])c1ccc(S(=O)(=O)NCc2ccc(C(F)(F)F)cc2)c([N+](=O)[O-])c1` [Compound 4, N-(4-trifluoromethylbenzyl) 2,4-dinitrophenylsulfonamide] the “MIC” value [3] was 0.4 µg/mL, the MIC [3, 11] was 0.98 µM and the “SO2 yield, 5 min” value [4] was 79 µM. For the same compound, the “SO2 yield, 30 min” value [4, 10] was 75 µM.
For `COC(=O)C1CCCN1S(=O)(=O)c1ccc([N+](=O)[O-])cc1[N+](=O)[O-]` (stereo not shown) [Compound 22, Methyl 1[(2,4-dinitrophenyl)sulfonyl]pyrrolidine-2-carboxylate], the SO2 source [5] was “yes”, the MIC [3, 12] was at most 25 µg/mL and the MIC [3, 13] was 35 µM. For the same compound, the MIC [3, 14] was 12.5 µg/mL and the “SO2 yield, 30 min” value [4, 15] was 83 µM.
`CC[C@@H](CO)NCCN[C@@H](CC)CO` [Ethambutol, reference compound] gave an MIC [3, 16] of 7.63 µM and an MIC [3, 17] of 1.56 µg/mL.
Work on `O=[N+]([O-])c1ccc(S(=O)(=O)Nc2ccc(F)cc2)c([N+](=O)[O-])c1` [Compound 10, N-(4-fluorophenyl) 2,4-dinitrophenylsulfonamide] yielded an MIC [1, 6] of over 16 µg/mL, an MIC [2, 7] of 16 µg/mL (≈ 46.9 µM) and an MIC [3, 8] of 18.3 µM. For the same compound, the MIC [3, 9] was 6.25 µg/mL, the “SO2 yield, 5 min” value [4] was 18 µM and the “SO2 yield, 30 min” value [4, 10] was 55 µM.
With `NNC(=O)c1ccncc1` [Isoniazide, reference compound] the SO2 source [5] was “no”, the MIC [3, 17] was 0.05 µg/mL and the MIC [3, 18] was 0.37 µM. The MIC [3, 11] was 0.37 µM and the “MIC” value ([3]; Table 3, inhibit 99% of bacterial growth, Mtb H37Rv) was 0.05 µg/mL.
For `O=[N+]([O-])c1cccc(S(=O)(=O)N(CCCN(Cc2ccccc2)S(=O)(=O)c2ccc([N+](=O)[O-])cc2[N+](=O)[O-])Cc2ccccc2)c1` [Compound 41, N-benzyl-N-(3-(N-benzyl-3-nitrophenylsulfonamido)propyl)-2,4-dinitrobenzenesulfon-amide], the “% SO2 (30 min)” value [4] was 99%.
With `O=[N+]([O-])c1ccc(S(=O)(=O)NCCc2ccccc2)c([N+](=O)[O-])c1` [Compound 14, N-(2-phenylethyl) 2,4-dinitrophenylsulfonamide] the “MIC” value [3] was 0.4 µg/mL, the MIC [3, 11] was 1.13 µM and the “SO2 yield, 5 min” value [4] was 76 µM. For the same compound, the “SO2 yield, 30 min” value [4, 10] was 100 µM.
With `O=S([O-])[O-].[Na+].[Na+]` [sodium sulfite, reference compound] the “inhibition of growth of Mtb at 100 μg mL-1” value (“inhibition of growth of Mtb” for short) [3] was “inactive against Mtb”.
With `O=[N+]([O-])c1ccc(S(=O)(=O)NCc2ccc(Cl)cc2)c([N+](=O)[O-])c1` [Compound 3, N-(4-chlorobenzyl)2,4-dinitrophenylsulfonamide] the MIC [3, 8] was 1.07 µM, the MIC [3, 9] was 0.4 µg/mL and the “SO2 yield, 5 min” value [4] was 77 µM. For the same compound, the “SO2 yield, 30 min” value [4, 10] was 96 µM.
With `C=CCN(CC=C)S(=O)(=O)c1ccc([N+](=O)[O-])cc1[N+](=O)[O-]` [Compound 32, N,N-diallyl-2,4-dinitrobenzenesulfonamide] the MIC [1, 19] was over 16 µg/mL and the MIC [2, 20] was 8 µg/mL (≈ 24.4 µM).
With `C#CCN(Cc1ccccc1)S(=O)(=O)c1ccc([N+](=O)[O-])cc1[N+](=O)[O-]` [Compound 33, N-benzyl-2,4-dinitro-N-prop-2-yn-1-ylbenzenesulfonamide] the MIC [1, 19] was 8 µg/mL (≈ 21.3 µM) and the MIC [2, 20] was 4 µg/mL (≈ 10.7 µM).
With `NC(=O)c1cnccn1` [Pyrizinamide, reference compound] the MIC [3, 16] was 50.8 µM and the MIC [3, 17] was 6.25 µg/mL.
In the case of `O=[N+]([O-])c1ccc(S(=O)(=O)N(Cc2ccccc2)c2ccccc2)c([N+](=O)[O-])c1` [Compound 17, (N-benzyl, N-phenyl) 2,4-dinitrophenylsulfonamide], the MIC [3, 11] was 4.44 µM, the “MIC” value ([3]; Table 2b, inhibit 99% of bacterial growth, Mtb H37Rv) was 1.56 µg/mL and the “SO2 yield, 5 min” value [4] was 44 µM. For the same compound, the “SO2 yield, 30 min” value [4, 10] was 94 µM.
In the case of `COC(=O)C(C)NS(=O)(=O)c1ccc([N+](=O)[O-])cc1[N+](=O)[O-]` (stereo not shown) [Compound 21, Methyl 2-{[(2,4-dinitrophenyl)sulfonyl]amino}propanoate], the SO2 source [5] was “yes”, the MIC [3, 12] was at most 25 µg/mL and the MIC [3, 13] was 18.7 µM. For the same compound, the MIC [3, 14] was 6.25 µg/mL and the “SO2 yield, 30 min” value [4, 15] was 93 µM.
For `CNCc1ccccc1` [BnNHMe, N-methylbenzylamine, reference compound], the SO2 source [5] was “no”, the MIC [3, 13] was over 250 µM and the MIC [3, 14] was over 100 µg/mL. The “inhibition of growth of Mtb” value [3] was “a similar observation”.
With `CN1CCN(S(=O)(=O)c2ccc([N+](=O)[O-])cc2[N+](=O)[O-])CC1` [Compound 25, 1-[(2,4-dinitrophenyl)sulfonyl]-4-methylpiperazine] the SO2 source [5] was “yes”, the MIC [3, 12] was at most 25 µg/mL and the MIC [3, 13] was 38 µM. The MIC [3, 14] was 12.5 µg/mL and the “SO2 yield, 30 min” value [4, 15] was 88 µM.
With `NCc1ccccc1` [BnNH2, Benzylamine, reference compound] the SO2 source [5] was “no”, the MIC [3, 18] was over 250 µM and the MIC ([3]; Mycobacterium tuberculosis, Table 3, inhibit 99% of bacterial growth, Mtb H37Rv, read-out: MIC) was over 100 µg/mL. For the same compound, the “inhibition of growth of Mtb” value [3] was “did not show a significant inhibition of growth of Mtb”.
For `O=[N+]([O-])c1ccc(S(=O)(=O)NCc2ccccc2C(F)(F)F)c([N+](=O)[O-])c1` [Compound 5, N-(2-trifluoromethylbenzyl) 2,4-dinitrophenylsulfonamide], the “MIC” value [3] was 1.56 µg/mL, the MIC [3, 11] was 3.84 µM and the “SO2 yield, 5 min” value [4] was 81 µM. For the same compound, the “SO2 yield, 30 min” value [4, 10] was 84 µM.
In the case of `COc1ccc(CNS(=O)(=O)c2ccc([N+](=O)[O-])cc2[N+](=O)[O-])cc1` [Compound 2, N-(4-methoxybenzyl)2,4-dinitrophenylsulfonamide], the MIC [1, 6] was over 16 µg/mL, the MIC [2, 7] was over 16 µg/mL and the MIC [3, 8] was 0.68 µM. The MIC [3, 9] was 0.25 µg/mL, the “SO2 yield, 5 min” value [4] was 74 µM and the “SO2 yield, 30 min” value [4, 10] was 84 µM.
In the case of `C[C@@H](NS(=O)(=O)c1ccc([N+](=O)[O-])cc1[N+](=O)[O-])c1ccccc1` [Compound 13, (R) N-(1-phenylethyl)-2,4-dinitrobenzenesulfonamide], the MIC [3, 8] was 4.44 µM, the MIC [3, 9] was 1.56 µg/mL and the “SO2 yield, 5 min” value [4] was 78 µM. For the same compound, the “SO2 yield, 30 min” value [4, 10] was 94 µM.
`N#Cc1ccc(NS(=O)(=O)c2ccc([N+](=O)[O-])cc2[N+](=O)[O-])cc1` [Compound 11, N-(4-cyanophenyl) 2,4-dinitrophenylsulfonamide] showed an MIC [1, 6] of over 16 µg/mL, an MIC [2, 7] of over 16 µg/mL and an MIC [3, 8] of over 100 µM. For the same compound, the MIC [3, 9] was over 50 µg/mL, the “SO2 yield, 5 min” value [4] was 6 µM and the “SO2 yield in 30 min (%)” value ([4]; 30 min after commencement of the reaction with cysteine (10 equiv), pH 7.4) was 5%. The “SO2 yield, 30 min” value [4, 10] was 5 µM.
In the case of `O=[N+]([O-])c1ccc(S(=O)(=O)N(CCCN(Cc2ccccc2)S(=O)(=O)c2ccccc2[N+](=O)[O-])Cc2ccccc2)c([N+](=O)[O-])c1` [Compound 40, N-benzyl-N-(3-(N-benzyl-2-nitrophenylsulfonamido)propyl)-2,4-dinitrobenzenesulfon-amide], the “% SO2 (30 min)” value [4] was 88%.
